From ChEMBL document CHEMBL1153103, “Bioisosterism of urea-based GCPII inhibitors: Synthesis and structure-activity relationship studies” (Bioorg Med Chem Lett, 2010)

target: T1, Glutamate carboxypeptidase 2 (Homo sapiens, UniProt Q04609); experiment: Inhibition of glutamate carboxypeptidase 2 in human LNCaP cells by fluorescence based NAALADase assay; type: cell-based
T1 sequence (Q04609 whole entry): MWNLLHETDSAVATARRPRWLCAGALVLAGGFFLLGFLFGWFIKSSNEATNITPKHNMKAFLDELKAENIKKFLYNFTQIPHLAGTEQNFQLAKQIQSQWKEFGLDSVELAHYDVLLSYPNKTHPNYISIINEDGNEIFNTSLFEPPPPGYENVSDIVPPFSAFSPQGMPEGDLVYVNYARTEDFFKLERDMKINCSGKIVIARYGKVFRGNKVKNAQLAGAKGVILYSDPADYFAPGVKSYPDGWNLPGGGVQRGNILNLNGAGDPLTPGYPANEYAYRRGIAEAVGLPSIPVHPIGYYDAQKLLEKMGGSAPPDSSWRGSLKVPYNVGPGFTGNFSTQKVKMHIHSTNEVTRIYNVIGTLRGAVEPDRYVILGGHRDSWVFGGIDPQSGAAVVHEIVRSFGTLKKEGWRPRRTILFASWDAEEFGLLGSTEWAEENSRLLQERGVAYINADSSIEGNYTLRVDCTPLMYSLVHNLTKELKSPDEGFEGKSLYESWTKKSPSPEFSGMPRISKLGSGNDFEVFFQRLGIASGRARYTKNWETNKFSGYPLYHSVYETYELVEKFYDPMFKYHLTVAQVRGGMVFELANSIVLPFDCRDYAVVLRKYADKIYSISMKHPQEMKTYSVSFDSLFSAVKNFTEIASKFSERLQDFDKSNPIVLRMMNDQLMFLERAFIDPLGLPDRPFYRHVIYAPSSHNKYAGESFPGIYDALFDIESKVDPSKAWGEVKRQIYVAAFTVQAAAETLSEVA

| Ki [µM] | SMILES |
| --- | --- |
| 0.081 | COc1cc(C(NC(=O)N[C@@H](CC(C)C)C(=O)OC(C)C)C(=O)O)ccc1O (some centres undefined) |
| > 1000 | COC(=O)[C@H](CC(C)C)NC(=O)N[C@@H](CCCSC)C(=O)O |
| 0.153 | COC(=O)[C@H](CC(C)C)NC(=O)NC(C(=O)O)c1ccc(O)c(OC)c1 (some centres undefined) |
| > 1000 | COC(=O)[C@H](CC(C)C)NC(=O)N[C@@H](Cc1cccc(O)c1)C(=O)O |
| 3 | CC(C)C[C@H](NC(=O)N[C@@H](Cc1cccc(C(=O)O)c1)C(=O)O)C(=O)O |
| 0.7 | CC(C)C[C@H](NC(=O)N[C@@H](Cc1ccc(O)cc1)C(=O)O)C(=O)O |
| 13 | CC(C)C[C@H](NC(=O)N[C@@H](Cc1ccc(O)c(I)c1)C(=O)O)C(=O)O |
| > 1000 | COC(=O)[C@H](CC(C)C)NC(=O)NC(C(=O)O)c1cccc(O)c1 (some centres undefined) |
| 3.5 | CSCCC[C@H](NC(=O)N[C@@H](CC(C)C)C(=O)O)C(=O)O |
| 13 | CC(C)C[C@H](NC(=O)NC(C(=O)O)c1cc(O)cc(O)c1)C(=O)O (some centres undefined) |
| 0.4 | COC(=O)[C@H](CC(C)C)NC(=O)N[C@H](C(=O)O)c1ccc(O)c(Br)c1 |
| 7.5 | COC(=O)[C@H](CC(C)C)NC(=O)N[C@@H](CCC(N)=O)C(=O)O |
| > 1000 | COC(=O)[C@H](CC(C)C)NC(=O)N[C@@H](Cc1cccc(C(=O)O)c1)C(=O)O |
| > 1000 | COC(=O)[C@H](CC(C)C)NC(=O)NC(C(=O)O)c1ccc(F)c(OC)c1 (some centres undefined) |
| 0.25 | COc1cc(C(NC(=O)N[C@@H](CC(C)C)C(=O)O)C(=O)O)ccc1O (some centres undefined) |
| 0.775 | CC(C)C[C@H](NC(=O)N[C@H](C(=O)O)c1ccc(O)cc1)C(=O)O |
| 0.275 | CC(C)C[C@H](NC(=O)NC(C(=O)O)c1ccc(O)c(I)c1)C(=O)OC(C)C (some centres undefined) |
| 3 | COC(=O)[C@H](CC(C)C)NC(=O)NC(C(=O)O)c1ccc(O)c(F)c1 (some centres undefined) |
| 0.475 | COC(=O)[C@H](CC(C)C)NC(=O)N[C@H](C(=O)O)c1ccc(O)c(I)c1 |
| > 1000 | CC(C)C[C@H](NC(=O)NC(C(=O)O)c1cccc(O)c1)C(=O)O (some centres undefined) |
| 0.575 | COC(=O)[C@H](CC(C)C)NC(=O)N[C@H](C(=O)O)c1cc(Br)c(O)c(Br)c1 |

target: T1, Glutamate carboxypeptidase 2; experiment: Inhibition of human cloned glutamate carboxypeptidase 2

| Ki [µM] | SMILES |
| --- | --- |
| 0.0053 | C#CC[C@H](NC(=O)N[C@@H](CCCCNC(=O)c1ccc(I)cc1)C(=O)O)C(=O)O |
| 0.285 | COc1cc(C(NC(=O)N[C@@H](CCCCNC(=O)c2ccc(I)cc2)C(=O)O)C(=O)O)ccc1O (some centres undefined) |
| 0.0162 | O=C(N[C@@H](CCCCNC(=O)c1ccc(I)cc1)C(=O)O)N[C@@H](Cc1cccs1)C(=O)O |
| 0.0523 | CCC[C@H](NC(=O)N[C@@H](CCCCNC(=O)c1ccc(I)cc1)C(=O)O)C(=O)O |
| 3.43 | O=C(O)CCCNC(=O)N[C@@H](CCCCNC(=O)c1ccc(I)cc1)C(=O)O |
| 0.794 | O=C(N[C@@H](CCCCNC(=O)c1ccc(I)cc1)C(=O)O)N[C@H](Cc1ccco1)C(=O)O |
| 0.318 | O=C(N[C@@H](CCCCNC(=O)c1ccc(I)cc1)C(=O)O)NC1(C(=O)O)CC1 |
| 0.32 | NC(=O)C[C@H](NC(=O)N[C@@H](CCCCNC(=O)c1ccc(I)cc1)C(=O)O)C(=O)O |
| 0.0851 | O=C(N[C@@H](CCCCNC(=O)c1ccc(I)cc1)C(=O)O)N[C@H](C(=O)O)c1ccc(O)cc1 |
| 0.0161 | O=C(N[C@@H](CCCCNC(=O)c1ccc(I)cc1)C(=O)O)N[C@@H](Cc1cscn1)C(=O)O |
| 0.0053 | O=C(N[C@@H](CCCCNC(=O)c1ccc(I)cc1)C(=O)O)N[C@@H](Cc1ccco1)C(=O)O |
| 0.0972 | O=C(N[C@@H](CCCCNC(=O)c1ccc(I)cc1)C(=O)O)N[C@@H](Cc1cccnc1)C(=O)O |
| 0.0241 | CC(=O)SCCC[C@H](NC(=O)N[C@@H](CCCCNC(=O)c1ccc(I)cc1)C(=O)O)C(=O)O |
| 0.254 | O=C(N[C@@H](CCCCNC(=O)c1ccc(I)cc1)C(=O)O)N[C@@H](CC1CO1)C(=O)O (some centres undefined) |
| 0.795 | O=C(N[C@@H](CCCCNC(=O)c1ccc(I)cc1)C(=O)O)N[C@H](Cc1cccs1)C(=O)O |
| 0.132 | N#CC[C@H](NC(=O)N[C@@H](CCCCNC(=O)c1ccc(I)cc1)C(=O)O)C(=O)O |
| 1.32 | O=C(O)CNC(=O)N[C@@H](CCCCNC(=O)c1ccc(I)cc1)C(=O)O |
| 0.105 | O=C(N[C@@H](CCCCNC(=O)c1ccc(I)cc1)C(=O)O)N[C@@H](Cc1ccncc1)C(=O)O |
